Measurements: ChEMBL document CHEMBL1201862, “PubChem BioAssay data set” (2004)
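Growth conditions: 96-well plates. Treatment: test compound, 48 hours, 5 concentrations. Analysis: linear interpolation between bracketing concentrations; unreached endpoints set to highest concentration. At the GI50, growth is halved.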 Activity calls are given as the source filed them. Cut-off read from the data, not from the text of the source: active = GI50 up to about 1.1 µM and inactive = higher.

What was measured:
Assay in all cases: growth of human tumour cells (NCI), 48 h
[1] = system: HCC 2998
[2] = system: NCI-H23
[3] = system: CCRF-CEM
[4] = system: RXF 393
[5] = system: OVCAR-5
[6] = system: SNB-19
[7] = system: SN12C
[8] = system: MDA-N
[9] = system: IGROV-1
[10] = system: KM12
[11] = system: UO-31
[12] = system: HT-29
[13] = system: 786-0
[14] = system: SF-268
[15] = system: A498
[16] = system: SF-295
[17] = system: T47D
[18] = system: SK-MEL-5
[19] = system: HCT-15
[20] = system: COLO 205
[21] = system: Hs-578T
[22] = system: PC-3
[23] = system: RPMI-8226
[24] = system: SK-OV-3
[25] = system: EKVX
[26] = system: DU-145
[27] = system: U-251
[28] = system: MDA-MB-231
[29] = system: MDA-MB-435
[30] = system: NCI-H226
[31] = system: SK-MEL-28
[32] = system: HOP-62
[33] = system: Malme-3M
[34] = system: NCI/ADR-RES
[35] = system: HCT-116
[36] = system: HL-60
[37] = system: MCF7
[38] = system: LOX IMVI
[39] = system: OVCAR-8
[40] = system: SNB-75
[41] = system: A549
[42] = system: SR
[43] = system: SK-MEL-2
[44] = system: ACHN
[45] = system: SF-539
[46] = system: NCI-H522
[47] = system: HOP-92
[48] = system: TK-10
[49] = system: M14
[50] = system: UACC-257
[51] = system: CAKI-1
[52] = system: UACC-62
[53] = system: SW-620
[54] = system: OVCAR-3
[55] = system: MOLT-4
[56] = system: K562
[57] = system: NCI-H460
[58] = system: OVCAR-4

## N#Cc1c(N)oc(-c2ccc([N+](=O)[O-])cc2)c1C#N
[1]
  GI50: 32.7 µM (inactive)
[2]
  GI50: 23.8 µM (inactive)
[3]
  GI50: 67.5 µM (inactive)
[4]
  GI50: 28.6 µM (inactive)
[5]
  GI50: 69.8 µM (inactive)
[6]
  GI50: 27.5 µM (inactive)
[7]
  GI50: 24.2 µM (inactive)
[8]
  GI50: 30.3 µM (inactive)
[9]
  GI50: 18.5 µM (inactive)
[10]
  GI50: 72.6 µM (inactive)
[11]
  GI50: 19.1 µM (inactive)
[12]
  GI50: 34.4 µM (inactive)
[13]
  GI50: 30.1 µM (inactive)
[14]
  GI50: 19.5 µM (inactive)
[15]
  GI50: 22.1 µM (inactive)
[16]
  GI50: 19.2 µM (inactive)
[17]
  GI50: 27.2 µM (inactive)
[18]
  GI50: 17 µM (inactive)
[19]
  GI50: 23.4 µM
[20]
  GI50: 43.9 µM (inactive)
[21]
  GI50: 25.6 µM (inactive)
[22]
  GI50: 22.5 µM (inactive)
[23]
  GI50: 33.3 µM (inactive)
[24]
  GI50: 45.2 µM (inactive)
[25]
  GI50: 8.67 µM (inactive)
[26]
  GI50: 23.6 µM (inactive)
[27]
  GI50: 39.4 µM (inactive)
[28]
  GI50: 22 µM (inactive)
[29]
  GI50: 47.4 µM (inactive)
[30]
  GI50: 17.9 µM (inactive)
[31]
  GI50: 44.2 µM (inactive)
[32]
  GI50: 24.5 µM (inactive)
[33]
  GI50: 26.7 µM (inactive)
[34]
  GI50: 18.7 µM (inactive)
[35]
  GI50: 29.2 µM (inactive)
[36]
  GI50: > 100 µM (inactive)
[37]
  GI50: 35 µM (inactive)
[38]
  GI50: 44.2 µM (inactive)
[39]
  GI50: 20.5 µM (inactive)
[40]
  GI50: 17.7 µM (inactive)
[41]
  GI50: 23 µM (inactive)
[42]
  GI50: 54.2 µM (inactive)
[43]
  GI50: 24.3 µM (inactive)
[44]
  GI50: 27.2 µM (inactive)
[45]
  GI50: 19.8 µM (inactive)
[46]
  GI50: 21.4 µM (inactive)
[47]
  GI50: 24.1 µM (inactive)
[48]
  GI50: 28.4 µM (inactive)
[49]
  GI50: 75.3 µM (inactive)
[50]
  GI50: 25.2 µM (inactive)
[51]
  GI50: 24.3 µM (inactive)
[52]
  GI50: 39.5 µM (inactive)
[53]
  GI50: 58.3 µM (inactive)

## O=c1[nH]nc(Cc2ccccc2)n1C1CCCC1
[1]
  GI50: > 100 µM (inactive)
[2]
  GI50: > 100 µM (inactive)
[3]
  GI50: > 100 µM (inactive)
[4]
  GI50: > 100 µM (inactive)
[5]
  GI50: > 100 µM (inactive)
[6]
  GI50: > 100 µM (inactive)
[7]
  GI50: > 100 µM (inactive)
[8]
  GI50: > 100 µM (inactive)
[9]
  GI50: > 100 µM (inactive)
[10]
  GI50: > 100 µM (inactive)
[11]
  GI50: > 100 µM (inactive)
[12]
  GI50: > 100 µM (inactive)
[13]
  GI50: > 100 µM (inactive)
[14]
  GI50: > 100 µM (inactive)
[15]
  GI50: > 100 µM (inactive)
[16]
  GI50: > 100 µM (inactive)
[17]
  GI50: > 100 µM (inactive)
[54]
  GI50: > 100 µM (inactive)
[18]
  GI50: > 100 µM (inactive)
[19]
  GI50: > 100 µM
[20]
  GI50: > 100 µM (inactive)
[21]
  GI50: > 100 µM (inactive)
[22]
  GI50: > 100 µM (inactive)
[23]
  GI50: > 100 µM (inactive)
[24]
  GI50: > 100 µM (inactive)
[55]
  GI50: > 100 µM (inactive)
[25]
  GI50: > 100 µM (inactive)
[26]
  GI50: > 100 µM (inactive)
[27]
  GI50: > 100 µM (inactive)
[28]
  GI50: > 100 µM (inactive)
[29]
  GI50: > 100 µM (inactive)
[56]
  GI50: > 100 µM (inactive)
[30]
  GI50: > 100 µM (inactive)
[31]
  GI50: > 100 µM (inactive)
[57]
  GI50: > 100 µM (inactive)
[32]
  GI50: > 100 µM (inactive)
[33]
  GI50: > 100 µM (inactive)
[34]
  GI50: > 100 µM (inactive)
[58]
  GI50: > 100 µM (inactive)
[35]
  GI50: > 100 µM (inactive)
[36]
  GI50: > 100 µM (inactive)
[37]
  GI50: > 100 µM (inactive)
[38]
  GI50: > 100 µM (inactive)
[39]
  GI50: > 100 µM (inactive)
[40]
  GI50: > 100 µM (inactive)
[41]
  GI50: > 100 µM (inactive)
[42]
  GI50: > 100 µM (inactive)
[44]
  GI50: > 100 µM (inactive)
[45]
  GI50: > 100 µM (inactive)
[46]
  GI50: > 100 µM (inactive)
[48]
  GI50: > 100 µM (inactive)
[49]
  GI50: > 100 µM (inactive)
[50]
  GI50: > 100 µM (inactive)
[51]
  GI50: > 100 µM (inactive)
[52]
  GI50: > 100 µM (inactive)
[53]
  GI50: > 100 µM (inactive)
